Test results from US20260285850A1, “SUBSTITUTED OXAZOLIDINONES AND IMIDAZOLINONES AS HERBICIDES” (FMC CORPORATION, priority 2023, published 2026).

Experiments:
Format in all cases: in vivo
[1] = test system: barnyardgrass (Echinochloa crus-galli); test: Test A preemergence soil spray, visual injury rating 0-100; details: 10 days, 0 = no effect, 100 = complete control
In short: (§1)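 Loam-sand pots got test material in surfactant-containing solvent, either as a directed soil spray before emergence or on plants at the one- to two-leaf stage. Visual injury (0-100) was read after ten greenhouse days.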

[2] = test system: blackgrass (Alopecurus myosuroides); test: as above; details: 10 days, 0 = no effect, 100 = complete control
In short: as §1

[3] = test system: corn (Zea mays); test: as above; details: 10 days, 0 = no effect, 100 = complete control
In short: as §1

[4] = test system: kochia (Bassia scoparia); test: as above; details: 10 days, 0 = no effect, 100 = complete control
In short: as §1

[5] = test system: oat, wild (wild oat, Avena fatua); test: as above; details: 10 days, 0 = no effect, 100 = complete control
In short: as §1

[6] = test system: palmer (palmer amaranth, palmer pigweed, Amaranthus palmeri); test: as above; details: 10 days, 0 = no effect, 100 = complete control
In short: as §1

[7] = test system: ragweed (common ragweed, Ambrosia artemisiifolia); test: as above; details: 10 days, 0 = no effect, 100 = complete control
In short: as §1

[8] = test system: ryegrass, Italian (italian ryegrass, Lolium multiflorum); test: as above; details: 10 days, 0 = no effect, 100 = complete control
In short: as §1

[9] = test system: soybean (Glycine max); test: as above; details: 10 days, 0 = no effect, 100 = complete control
In short: as §1

[10] = test system: wheat (Triticum aestivum); test: as above; details: 10 days, 0 = no effect, 100 = complete control
In short: as §1

[11] = test system: barnyardgrass (Echinochloa crus-galli); test: Test A postemergence application, visual injury rating 0-100; details: Postemergence
In short: as §1

[12] = test system: blackgrass (Alopecurus myosuroides); test: as above; details: Postemergence
In short: as §1

[13] = test system: corn (Zea mays); test: as above; details: Postemergence
In short: as §1

[14] = test system: galium (catchweed bedstraw, Galium aparine); test: as above; details: Postemergence
In short: as §1

[15] = test system: horseweed (Erigeron canadensis); test: as above; details: Postemergence
In short: as §1

[16] = test system: kochia (Bassia scoparia); test: as above; details: Postemergence
In short: as §1

[17] = test system: oat, wild (wild oat, Avena fatua); test: as above; details: Postemergence
In short: as §1

[18] = test system: palmer (palmer amaranth, palmer pigweed, Amaranthus palmeri); test: as above; details: Postemergence
In short: as §1

[19] = test system: ragweed (common ragweed, Ambrosia artemisiifolia); test: as above; details: Postemergence
In short: as §1

[20] = test system: ryegrass, Italian (italian ryegrass, Lolium multiflorum); test: as above; details: Postemergence
In short: as §1

[21] = test system: soybean (Glycine max); test: as above; details: Postemergence
In short: as §1

[22] = test system: wheat (Triticum aestivum); test: as above; details: Postemergence
In short: as §1

[23] = test system: barnyardgrass (Echinochloa crusgalli); test: Test B flooded paddy test, visual plant response rating 0-100; details: 250 g ai/ha, Flood, applied to paddy water, evaluated after 13 days
In short: (§2)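 Compounds applied to standing paddy water (3 cm above soil, maintained for the test duration) on 2-leaf-stage plants; visual rating vs controls at 13 days, greenhouse.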

[24] = test system: ducksalad (Heteranthera limosa); test: as above; details: 250 g ai/ha, Flood, applied to paddy water, evaluated after 13 days
In short: as §2

[25] = test system: rice (Oryza sativa); test: as above; details: 250 g ai/ha, Flood, applied to paddy water, evaluated after 13 days
In short: as §2

[26] = test system: sedge, umbrella (small-flower umbrella sedge, Cyperus difformis); test: as above; details: 250 g ai/ha, Flood, applied to paddy water, evaluated after 13 days
In short: as §2

[27] = 31 g ai/ha, greenhouse 10 days, 0 no effect, 100 complete control
[28] = 125 g ai/ha, 10 days, 0 is no effect, 100 is complete control

CC1(C(=O)NC2C=CC(C(=O)ON=Cc3ccccc3)C2)CN(c2cc(F)cc(F)c2)C(=O)O1 (stereo not drawn) [Compound 68]
100: Barnyardgrass plant response rating (0 to 100 scale) ([1]; 125 g ai/ha) | Amaranth, Palmer plant response rating (0-100) ([6]; 31 g ai/ha) | Amaranth, Palmer plant response rating (0 to 100 scale) ([6]; 125 g ai/ha) | Corn plant response rating (0 to 100 scale) [13, 28] | Ryegrass, Italian plant response rating (0 to 100 scale) [20, 28] | Soybean plant response rating (0 to 100 scale) [21, 28]
70: Blackgrass plant response rating (0 to 100 scale) ([2]; 125 g ai/ha) | Ryegrass, Italian plant response rating (0-100) ([8]; 31 g ai/ha) | Soybean plant response rating (0 to 100 scale) ([9]; 125 g ai/ha) | Blackgrass plant response rating (0 to 100 scale) [12, 27]
80: Corn plant response rating (0 to 100 scale) ([3]; 125 g ai/ha) | Kochia plant response rating (0-100) ([4]; 31 g ai/ha) | Ryegrass, Italian plant response rating (0 to 100 scale) ([8]; 125 g ai/ha) | Wheat plant response rating (0-100) ([10]; 31 g ai/ha) | Corn plant response rating (0 to 100 scale) [13, 27] | Kochia plant response rating (0 to 100 scale) [16, 27] | Ragweed plant response rating (0 to 100 scale) [19, 28] | Wheat plant response rating (0 to 100 scale) [22, 27]
30: Oat, Wild plant response rating (0 to 100 scale) [17, 27]
85: Plant response rating, Barnyardgrass (0 to 100 scale, 0 is no effect and 100 is complete control) [23]
98: Plant response rating, Sedge, Umbrella (0 to 100 scale, 0 is no effect and 100 is complete control) [26]
40: Plant response rating, Rice (0 to 100 scale, 0 is no effect and 100 is complete control) [25]
60: Oat, Wild plant response rating (0-100) ([5]; 31 g ai/ha)
95: Plant response rating, Ducksalad (0 to 100 scale, 0 is no effect and 100 is complete control) [24]
90: Barnyardgrass plant response rating (0-100) ([1]; 31 g ai/ha) | Kochia plant response rating (0 to 100 scale) ([4]; 125 g ai/ha) | Oat, Wild plant response rating (0 to 100 scale) ([5]; 125 g ai/ha) | Wheat plant response rating (0 to 100 scale) ([10]; 125 g ai/ha) | Barnyardgrass plant response rating (0 to 100 scale) [11, 27] | Barnyardgrass plant response rating (0 to 100 scale) [11, 28] | Blackgrass plant response rating (0 to 100 scale) [12, 28] | Galium plant response rating (0 to 100 scale) [14, 27] | Galium plant response rating (0 to 100 scale) [14, 28] | Horseweed plant response rating (0 to 100 scale) [15, 28] | Kochia plant response rating (0 to 100 scale) [16, 28] | Oat, Wild plant response rating (0 to 100 scale) [17, 28] | Amaranth, Palmer / Pigweed, Palmer plant response rating (0 to 100 scale) [18, 27] | Amaranth, Palmer / Pigweed, Palmer plant response rating (0 to 100 scale) [18, 28] | Ryegrass, Italian plant response rating (0 to 100 scale) [20, 27] | Soybean plant response rating (0 to 100 scale) [21, 27] | Wheat plant response rating (0 to 100 scale) [22, 28]
50: Blackgrass plant response rating (0-100) ([2]; 31 g ai/ha) | Horseweed plant response rating (0 to 100 scale) [15, 27]
0: Corn plant response rating (0-100) ([3]; 31 g ai/ha) | Ragweed plant response rating (0-100) ([7]; 31 g ai/ha) | Soybean plant response rating (0-100) ([9]; 31 g ai/ha) | Ragweed plant response rating (0 to 100 scale) [19, 27]
20: Ragweed plant response rating (0 to 100 scale) ([7]; 125 g ai/ha)
